The target in test [1] is T1, Sphingosine 1-phosphate receptor 2 (Homo sapiens, UniProt O95136). In words: Dose Response Cell Based Assay for Antagonists of the S1P2 Receptor. [Related pubchem assays: 856, 736 ]. The class given is functional.
In test [2] the target is T1, Sphingosine 1-phosphate receptor 2. In words: Dose Response Cell Based Assay for Agonists of the S1P2 Receptor. [Related pubchem assays: 729, 736, 843 ]. The class given is functional.
Test [3] in a line: Luminescence-based cell-based high throughput dose response assay to identify activators of the DAF-12 from the parasite S. stercoralis (ssDAF-12). The class given is functional.
The target in test [4] is Oxysterols receptor LXR-beta (Homo sapiens, UniProt P55055). As to the kind of experiment: LXR agonists, Gal4 luciferase reporter, dose response, counter-screen for ssDAF-12 agonist project, cell-based, luminescence, HEK293, S. stercoralis campaign (AID 720737). The class given is functional. As to conditions: read-out: IC50 (the source's name).
Chain of Oxysterols receptor LXR-beta (P55055 whole entry, the tested form may be a part): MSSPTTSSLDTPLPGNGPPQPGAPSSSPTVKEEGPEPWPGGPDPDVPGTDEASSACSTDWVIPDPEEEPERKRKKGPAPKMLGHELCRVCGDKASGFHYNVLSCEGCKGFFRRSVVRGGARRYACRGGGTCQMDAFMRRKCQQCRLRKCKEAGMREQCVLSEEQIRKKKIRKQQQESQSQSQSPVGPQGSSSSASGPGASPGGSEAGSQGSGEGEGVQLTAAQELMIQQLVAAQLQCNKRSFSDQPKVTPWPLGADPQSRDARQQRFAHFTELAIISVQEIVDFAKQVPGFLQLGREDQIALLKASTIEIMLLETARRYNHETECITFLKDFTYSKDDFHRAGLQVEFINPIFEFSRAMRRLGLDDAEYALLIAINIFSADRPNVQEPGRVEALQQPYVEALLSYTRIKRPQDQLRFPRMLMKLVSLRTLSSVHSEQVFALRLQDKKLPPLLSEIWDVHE
Test [5] has as its target FAD-linked sulfhydryl oxidase ALR (Homo sapiens, UniProt P55789). As to the kind of experiment: ALR-catalysed DTT oxidation blockers – biochemical, H2O2 detection, luminescence, cherry-pick, dose response (AID 493248).
Test [6] is described as follows: reduced cellular PGC1a acetyl-lysine signal – cell-based, cherry-picked samples, dose response (AID 720514).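 Note: potency may reflect raised or lowered acetylation signal.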 The class given is functional.
The test system of test [7] is Streptococcus sp. 'group A'. In words: Streptococcus pyogenes SK(-)GAS viability under kanamycin – luminescence, BacTiterGlo, confirmation, counter-screen for streptokinase expression inhibitor project, dose response (AID 1900). The class given is functional, organism-based.
For another test, the target named is T2, Streptokinase A (Streptococcus pyogenes serotype M1, UniProt P10520).
T2 sequence (P10520 whole entry): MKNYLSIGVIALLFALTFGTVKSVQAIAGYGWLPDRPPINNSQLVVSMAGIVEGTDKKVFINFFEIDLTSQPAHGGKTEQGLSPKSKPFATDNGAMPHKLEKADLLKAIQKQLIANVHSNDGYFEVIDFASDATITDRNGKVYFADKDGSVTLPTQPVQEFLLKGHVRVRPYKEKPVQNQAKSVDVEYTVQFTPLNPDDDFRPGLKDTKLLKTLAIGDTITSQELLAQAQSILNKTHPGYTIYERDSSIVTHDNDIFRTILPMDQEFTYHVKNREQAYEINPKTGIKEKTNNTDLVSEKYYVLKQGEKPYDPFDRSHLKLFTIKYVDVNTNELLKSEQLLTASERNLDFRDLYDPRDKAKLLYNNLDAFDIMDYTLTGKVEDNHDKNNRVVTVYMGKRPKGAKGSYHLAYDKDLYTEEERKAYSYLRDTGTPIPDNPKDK
In words: viability-normalized secreted streptokinase activity reduction – plasminogen activation absorbance, OD405, dose response (AID 1914).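 Note: secreted streptokinase activity via plasminogen activation per viability signal from cell pellet.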 The class given is functional, Streptococcus pyogenes M1 GAS.

Test [8] in a line: HPDE-C7 pancreatic duct cell viability loss – fluorescence, HTS (AID 430). The class given is functional, cell-based. As to conditions: Homo sapiens.
Test [9] can be described thus: Trypanosoma cruzi growth suppression in host cells – NIH3T3 host cells, beta-gal luminescence, confirmation (AID 2044).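 Note: intracellular parasites grown in NIH/3T3 mouse fibroblasts as host cells; luminescent beta-galactosidase reporter signal from transgenic T. cruzi replicating inside host cells; inhibitors lower the luminescence signal.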 The class given is functional, cell-based.
The nature of test [10]: viability loss of HPDE-C7K cells – cell-based, fluorescence, HTS, primary screen (AID 431). The class given is functional. As to conditions: Homo sapiens.
A short description of test [11]: NIH3T3 cell viability loss – ATP luminescence, mouse fibroblasts, counter-screen, dose response (AID 2010).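 Note: cells exposed to compound for about 90 hours before reading.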 The class given is functional, cell-based.
In a further test the test system is Streptococcus. In words: GAS UMAA2166 growth inhibition – luminescence, BacTiterGlo, counter-screen for streptokinase expression inhibitor project, dose response (AID 1915).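 Note: potency for reduction of bacterial viability or growth.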 The class given is functional, organism-based.
For the next test, the target named is Ephrin type-A receptor 4 (Mus musculus, UniProt Q03137). In words: EphA4 ligand-binding antagonists – biochemical, colorimetric, mouse EphA4, primary screen (AID 689). The class given is functional.
Chain of Ephrin type-A receptor 4 (Q03137 whole entry): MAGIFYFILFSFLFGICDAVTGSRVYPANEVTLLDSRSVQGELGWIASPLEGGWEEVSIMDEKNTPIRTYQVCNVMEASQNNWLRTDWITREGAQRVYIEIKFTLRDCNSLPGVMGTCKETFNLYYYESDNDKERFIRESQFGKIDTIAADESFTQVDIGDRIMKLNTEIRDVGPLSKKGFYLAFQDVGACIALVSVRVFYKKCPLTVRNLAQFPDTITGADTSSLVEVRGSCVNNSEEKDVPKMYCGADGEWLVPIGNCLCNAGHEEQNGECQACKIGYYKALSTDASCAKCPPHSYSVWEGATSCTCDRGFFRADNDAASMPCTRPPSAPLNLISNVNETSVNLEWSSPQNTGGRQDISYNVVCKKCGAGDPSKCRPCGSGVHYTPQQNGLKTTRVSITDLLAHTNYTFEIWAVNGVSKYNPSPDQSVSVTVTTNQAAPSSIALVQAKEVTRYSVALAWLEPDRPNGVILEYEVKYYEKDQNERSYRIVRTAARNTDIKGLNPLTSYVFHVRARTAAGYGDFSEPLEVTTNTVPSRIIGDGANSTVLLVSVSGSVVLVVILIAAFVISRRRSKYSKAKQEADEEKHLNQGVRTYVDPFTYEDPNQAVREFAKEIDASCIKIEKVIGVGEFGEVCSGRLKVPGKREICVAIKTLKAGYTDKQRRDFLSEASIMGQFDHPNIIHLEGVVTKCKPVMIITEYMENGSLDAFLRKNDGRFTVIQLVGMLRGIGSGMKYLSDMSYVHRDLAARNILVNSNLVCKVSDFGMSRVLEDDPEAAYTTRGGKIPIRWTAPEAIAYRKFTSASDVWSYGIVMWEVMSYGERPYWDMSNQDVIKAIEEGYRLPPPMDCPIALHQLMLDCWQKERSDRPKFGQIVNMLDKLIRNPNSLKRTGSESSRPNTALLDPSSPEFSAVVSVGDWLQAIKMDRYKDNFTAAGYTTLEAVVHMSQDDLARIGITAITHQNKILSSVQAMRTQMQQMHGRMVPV
The target in test [12] is Luciferin 4-monooxygenase (Photinus pyralis, UniProt P08659). As to the kind of experiment: inhibition of purified Photinus pyralis luciferase – biochemical, luminescence, dose response (AID 1891).
Chain of Luciferin 4-monooxygenase (P08659 whole entry): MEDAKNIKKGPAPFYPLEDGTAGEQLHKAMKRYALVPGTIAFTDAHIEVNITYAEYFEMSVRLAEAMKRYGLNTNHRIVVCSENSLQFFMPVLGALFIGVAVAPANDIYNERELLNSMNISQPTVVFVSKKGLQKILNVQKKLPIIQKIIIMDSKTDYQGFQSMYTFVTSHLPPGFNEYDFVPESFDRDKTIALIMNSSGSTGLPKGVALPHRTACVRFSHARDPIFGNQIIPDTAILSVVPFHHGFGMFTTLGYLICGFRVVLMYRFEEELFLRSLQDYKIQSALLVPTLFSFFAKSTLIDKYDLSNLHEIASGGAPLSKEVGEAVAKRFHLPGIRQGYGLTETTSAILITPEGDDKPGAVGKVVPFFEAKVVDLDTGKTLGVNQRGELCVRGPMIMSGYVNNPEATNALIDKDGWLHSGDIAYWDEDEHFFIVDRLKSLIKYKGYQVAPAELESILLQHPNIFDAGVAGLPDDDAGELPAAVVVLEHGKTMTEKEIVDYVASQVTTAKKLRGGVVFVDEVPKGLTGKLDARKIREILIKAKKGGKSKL
A short description of test [13]: Luminescence Cell-Based Dose Confirmation HTS to Identify Inhibitors of Platelet Dense Granule Release. [Related pubchem assays: 1663 (Primary HTS), 1678 (Summary of Project)]. The class given is functional.
A further test has as its target Paired box protein Pax-8 (Homo sapiens, UniProt Q06710). In words: PAX8 transcriptional activity inhibition in RMG-I – RMG-I cells, luciferase, cherry-pick, dose response (AID 687027).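 Note: luciferase reporter driven by Pax8 target thyroperoxidase promoter measured by SteadyGlo luminescence.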 The class given is functional, cell-based.
The nature of test [14]: A2780 cell killing – plate reader, dry powder samples, cytotoxicity control, dose response (AID 743046). The class given is functional, cell-based.
A short description of test [15]: OVCAR-3 cell viability loss – plate reader, dry powder samples, PAX8 inhibitor project, dose response (AID 743044). The class given is functional, cell-based.
A short description of test [16]: blockers of HIV-1 envelope-mediated cell-cell fusion – cherry-pick, dose response (AID 652057). The class given is functional, cell-based.
Test [17] is described as follows: blockers of HIV-1 ZM109 envelope-driven cell-cell fusion – HeLa effector, CEM target cells, luciferase, cherry-pick, dose response (AID 652058).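 Note: luciferase signal from HIV-1 Env mediated cell-cell fusion of effector and target cells.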 The class given is functional, cell-based.
A short description of test [18]: inhibition of Env-driven cell fusion – HIV entry, plate reader, dry powder, dose response (AID 687023). The class given is functional, cell-based.
Test [19] can be described thus: viability loss in CEM21 cells – cell-based, plate reader, dry powder, cytotoxicity control, dose response (AID 687026). The class given is functional.
Test [20] addresses NAD-dependent protein deacylase sirtuin-5, mitochondrial (Homo sapiens, UniProt Q9NXA8). In words: blockers of sirtuin-5 peptide desuccinylation – biochemical, fluorescence imaging, cherry-pick, set 6, dose response (AID 720597).
Test [21] in a line: inhibitors acting on PAX2 in cells – cell-based, plate reader, dry powder samples, selectivity assay for PAX8 inhibitor project, dose response (AID 743048).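 Note: HEK293 cells carrying a WT1 promoter luciferase reporter driven by expressed Pax2; potency is for inhibition of Pax2 driven reporter signal.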 The class given is functional.
Test [22] in a line: PAX5 cellular inhibition readout – cell-based, plate reader, dry powder samples, selectivity assay for PAX8 inhibitor project, dose response (AID 743047).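 Note: HEK293 cells carrying a Pax5 driven CD19 promoter luciferase reporter; potency of inhibitors that lower reporter luminescence.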 The class given is functional.
The nature of test [23]: OV-90 cell viability loss – plate reader, dry powder, SA8, PAX8 inhibitor project, dose response (AID 743149). The class given is functional, cell-based.
A short description of test [24]: PAX8-dependent cell viability loss – plate reader, dry powder, dose response (AID 743049). The class given is functional, cell-based.
Test [25] is described as follows: cytotoxicity in MITF-independent A375 cells – cell-based, CellTiter-Glo luminescence, dry powder, set 4, counter-screen for MITF inhibitor project, dose response (AID 624364).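 Note: A375 melanoma cells are MITF independent so this is a counter screen.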 The class given is functional. As to conditions: A-375.
Test [26] is described as follows: viability loss in MITF-independent A375 cells – cell-based, CellTiter-Glo luminescence, dry powder, set 2, counter-screen for MITF inhibitor project, dose response (AID 624489).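 Note: actives are compounds lowering A375 viability meaning general cytotoxicity.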 As to conditions: A-375. The class given is functional.
A short description of test [27]: P. falciparum Dd2 growth inhibitors, dose response, SYBR Green, cherry-picked samples (AID 1159567). The class given is functional, cell-based.
The nature of test [28]: toxicity to human hepatoma HepG2 cells – cell-based, cherry-picked samples, cytotoxicity control, dose response (AID 1159577). The class given is functional.
The nature of test [29]: growth inhibition of yeast DHODH-expressing 3D7 parasites – SYBR Green, dry powder samples, dose response (AID 1159570).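 Note: parasite growth measured after 72 hours of compound exposure.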 The class given is functional, cell-based.
A short description of test [30]: toxicity to human HepG2 hepatoma cells – cell-based, plate reader, dry powder samples, cytotoxicity control, dose response (AID 1159569).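 Note: inhibitor potency with signal falling toward the positive control level.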 The class given is functional.
Test [31] can be described thus: Dd2 malaria parasite growth inhibition potency – SYBR Green, dry powder samples, dose response (AID 1159566).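 Note: potency for growth inhibition with lower SYBR green DNA signal.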 The class given is functional, cell-based.
Test [32] can be described thus: growth inhibition of PfATP4-mutant resistant parasites – NITD609-resistant line, SYBR Green, dry powder, dose response (AID 1159571).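 Note: parasites synchronized at ring stage by sorbitol before testing.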 The class given is functional, cell-based.
Test [33] can be described thus: rise of 2N DNA cells, HeLa – IC50, dose response (AID 1117349). The class given is functional, cell-based.
A short description of test [34]: rise of 4N DNA cells, HeLa – IC50, dose response (AID 1117351). The class given is functional, cell-based.

Calls of active or inactive are those of the source. Bounds are passed on as bounds.

T1 sequence (O95136 whole entry): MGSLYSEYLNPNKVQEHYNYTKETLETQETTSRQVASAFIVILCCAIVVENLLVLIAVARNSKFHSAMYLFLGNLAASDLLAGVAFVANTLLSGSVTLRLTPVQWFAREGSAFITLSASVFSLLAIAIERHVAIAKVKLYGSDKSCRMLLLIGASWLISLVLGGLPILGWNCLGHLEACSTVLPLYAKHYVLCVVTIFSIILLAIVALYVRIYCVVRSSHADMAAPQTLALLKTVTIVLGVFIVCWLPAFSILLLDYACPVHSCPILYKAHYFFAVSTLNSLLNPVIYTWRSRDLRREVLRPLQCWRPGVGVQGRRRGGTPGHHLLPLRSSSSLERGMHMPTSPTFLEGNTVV
Chain of NAD-dependent protein deacylase sirtuin-5, mitochondrial (Q9NXA8 whole entry): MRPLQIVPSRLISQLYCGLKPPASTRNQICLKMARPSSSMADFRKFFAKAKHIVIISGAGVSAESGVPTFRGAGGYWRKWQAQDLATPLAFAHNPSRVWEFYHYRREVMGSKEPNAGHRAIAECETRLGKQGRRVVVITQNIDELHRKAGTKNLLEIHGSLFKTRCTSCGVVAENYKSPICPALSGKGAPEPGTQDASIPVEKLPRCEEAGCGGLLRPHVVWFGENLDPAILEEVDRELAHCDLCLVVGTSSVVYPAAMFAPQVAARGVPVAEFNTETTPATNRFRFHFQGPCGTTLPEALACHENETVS
Chain of FAD-linked sulfhydryl oxidase ALR (P55789 whole entry): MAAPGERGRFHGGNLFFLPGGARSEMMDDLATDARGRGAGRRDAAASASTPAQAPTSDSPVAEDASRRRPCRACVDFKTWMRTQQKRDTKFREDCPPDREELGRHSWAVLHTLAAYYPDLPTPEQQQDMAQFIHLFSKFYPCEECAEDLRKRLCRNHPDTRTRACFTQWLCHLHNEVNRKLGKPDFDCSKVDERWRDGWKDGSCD
Chain of Paired box protein Pax-8 (Q06710 whole entry): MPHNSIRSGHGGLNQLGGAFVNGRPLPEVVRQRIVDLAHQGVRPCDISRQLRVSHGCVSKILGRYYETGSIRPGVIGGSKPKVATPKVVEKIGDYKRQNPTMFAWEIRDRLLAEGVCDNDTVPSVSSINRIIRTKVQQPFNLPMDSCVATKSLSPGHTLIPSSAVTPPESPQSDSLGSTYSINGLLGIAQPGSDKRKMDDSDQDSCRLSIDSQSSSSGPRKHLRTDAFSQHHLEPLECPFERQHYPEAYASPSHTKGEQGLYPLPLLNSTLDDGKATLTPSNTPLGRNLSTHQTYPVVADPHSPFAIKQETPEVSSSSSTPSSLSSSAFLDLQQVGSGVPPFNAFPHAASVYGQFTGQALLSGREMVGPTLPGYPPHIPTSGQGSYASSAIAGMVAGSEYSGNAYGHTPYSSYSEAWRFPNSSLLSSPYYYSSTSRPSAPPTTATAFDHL

Turning to `Cc1ccc2[nH]c3c(N4CCCCCC4)ncnc3c2c1`, in [1], the IC50 was 3.44 µM (active).
As to `CCCc1nn(-c2cc(Cl)ccc2OC)c2c1C(=O)CCC2`, the EC50 in test [2] is recorded as > 50 µM (not active).
As for `N#C/C(=C\c1ccc[nH]1)C(=O)Nc1ccccc1F`, the IC50 in [3] is > 67.5 µM (inactive). In addition, the EC50 in test [4] is > 67.5 µM (inactive).
For the compound `Cc1cc(C)c(S(=O)(=O)Nc2ccc(O)cc2)cc1C`, the EC50 in test [2] is given as > 50 µM (not active). Further, the AC50 in [5] is 0.926 µM (active).
For the compound `COc1ccc(F)cc1CN1CCN(CC(=O)N2CCc3ccccc32)CC1`, the AC50 in [6] was 24.9 µM (active).
For `N#C/C(=C/c1ccc(N2CCCCCC2)o1)c1ccc(F)cc1`, the IC50 in test [1] is 11.5 µM (not active). For the same compound, the EC50 in [7] is 19.2 µM (active); on Streptokinase A, 16 µM (active); in test [8] it was 13.6 µM (active); in [9], 3.49 µM (active); in test [10], 14.1 µM (active); in test [11], 9.44 µM (active). In addition, the EC50 in the test on Streptococcus is recorded as > 150 µM (not active).
`COc1ccc(/C=c2\sc3nc(-c4ccccc4)c(-c4ccccc4)n3c2=O)cc1OC`: the IC50 on Ephrin type-A receptor 4 was 8.12 µM (active).
For `N/C(=N\N=C\c1cccc(O)c1)c1nonc1N`, the EC50 in test [12] was 3.47 µM (active); in [13], 1.75 µM (active); in test [4], > 67.5 µM (inactive). In addition, in [3], the IC50 is > 67.5 µM (inactive).
`CS(=O)(=O)N1CC(=O)N2[C@H](CO)[C@H](c3ccc(C#CCC4CCCC4)cc3)[C@H]2C1`: the AC50 on Paired box protein Pax-8 is 5.98 µM (active); in [14], 33.1 µM (active); in test [15] it was 23 µM (active).
As to `C[C@H]1CN([C@@H](C)CO)C(=O)c2ccccc2-c2ccccc2CO[C@H]1CN(C)S(=O)(=O)c1ccccc1C#N`, the AC50 in test [16] was 0.838 µM (active); in test [17] it was 3.49 µM (active); in test [18], 47 µM (active); in test [19], > 70 µM (inactive).
In the case of `C[C@H]1CN([C@@H](C)CO)C(=O)c2cccc(NC(=O)NC3CCCCC3)c2O[C@@H]1CN(C)Cc1ccc(C(=O)O)cc1`, the AC50 in test [20] was 22.8 µM (active).
Take `C[C@@H]1CN([C@@H](C)CO)C(=O)c2cc(NS(=O)(=O)c3ccccc3)ccc2O[C@@H]1CN(C)CC1CCCCC1`: the AC50 in test [20] was > 30 µM (inactive).
Consider `C[C@H](CO)N1C[C@H](C)[C@@H](CN(C)C(=O)C2CCCCC2)Oc2cc(C#Cc3ccncc3)ccc2S1(=O)=O`, for which the AC50 in test [6] is 9.86 µM (active).
Consider `COC(=O)[C@@]1(CCS(=O)(=O)c2ccccc2)N=C(c2ccc(OCCCO)cc2)O[C@H]1c1ccccc1`, for which the AC50 in test [21] was 58.6 µM (active); in test [15], 95 µM (active); in test [22] it was 77.3 µM (active); in [23], 14.1 µM (active); in test [24] it was > 100 µM (inactive).
In the case of `O=C1C(Nc2ccccc2)=C(NS(=O)(=O)c2ccccc2[N+](=O)[O-])C(=O)c2ccccc21`, the AC50 in test [25] and in test [26] was > 70 µM (inactive) in each case.
As to `Cc1ccc(-c2ccc3c(c2)O[C@H](CN(C)Cc2ccncc2)[C@@H](C)CN([C@H](C)CO)S3(=O)=O)cc1`, the AC50 was 5.12 µM (active) in test [27] and 22.1 µM (active) in test [28].
Turning to `COc1cc(CN2C[C@@H]3N[C@H](C2)[C@@H]3c2ccc(-c3ccncc3)cc2)cc(OC)c1`, the AC50 in test [29] was 2.53 µM (active); in [30], 18.7 µM (active); in [27] it was 2.11 µM (active); in test [31], 1.92 µM (active); in test [28] it was > 39 µM (inactive); in [32], 1.9 µM (active).
With `COCC#Cc1ccc([C@@H]2[C@H](CO)N3CCCCN(S(=O)(=O)c4ccc(OC)cc4)C[C@@H]23)cc1`, the AC50 in test [29] is 1.81 µM (active); in [30], 98.4 µM (active); in test [27], 2.47 µM (active); in [31], 1.33 µM (active); in [32], 1.48 µM (active).
In the case of `COc1ccc(C2=C(NC(=O)c3ccc(Cl)cc3)C(=O)c3ccccc3C2=O)cc1`, the AC50 in [25] is 35.3 µM (active); in test [26], 18.2 µM (active).
On to `COCCOC(=O)C1=C(C)NC(C)=C(C(=O)OC/C=C/c2ccccc2)C1c1cccc([N+](=O)[O-])c1` (stereo unspecified) [CILNIDIPINE], for which the IC50 in [33] and in test [34] was > 10 µM (inactive) each time.
Regarding `COC(=O)[C@H]1[C@H]2C[C@@H]3c4[nH]c5cc(OC)ccc5c4CCN3C[C@H]2C[C@@H](OC(=O)/C=C/c2ccc(O)c(OC)c2)[C@@H]1OC` [RESCIMETOL], the IC50 in [33] and in test [34] was > 10 µM (inactive) throughout.
